± gives the standard deviation of the averaged measurements.
Tests used:
Test in all cases: relative viability vs DMSO control (72 h) (fraction); higher = more viable cells
SW1353 = test system: SW1353
Procedure, shortened: (§1)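 Sarcoma cell lines were seeded in 384-well plates at densities chosen for 80–90% confluence, then 24 h later given 2.5 µl of serially diluted compound drawn from source plates spanning 10 mM to 0.0002 mM. They were held 72 h at 37 °C, 5% CO2, with 0.1% DMSO vehicle and a 5 µM positive control included. Relative viability was read with ATPLite as percent growth and averaged over up to triplicate wells. Rescaling placed full at 1 and none at 0.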

HT1080 = test system: HT1080
Procedure, shortened: as §1

KHOS-NP = test system: KHOS-NP
Procedure, shortened: as §1

A204 = test system: A204
Procedure, shortened: as §1

SW872 = test system: SW872
Procedure, shortened: as §1

SYO-1 = test system: SYO-1
Procedure, shortened: as §1

G401 = test system: G401
Procedure, shortened: as §1

VA-ES-BJ = test system: VA-ES-BJ
Procedure, shortened: as §1

SW684 = test system: SW684
Procedure, shortened: as §1

MES-SA = test system: MES-SA
Procedure, shortened: as §1

SK-LMS-1 = test system: SK-LMS-1
Procedure, shortened: as §1

HS729 = test system: HS729
Procedure, shortened: as §1

For `COc1cc2ncnc(Nc3cccc(Cl)c3F)c2cc1OC(=O)N1CCN(C)C[C@H]1C` [AZD-3759], the relative viability (SW1353; 0.00017 µM) was 1.02 ± 0.019, the relative viability (SW1353; 0.00051 µM) was 1.02 ± 0.049 and the relative viability (SW1353; 0.00152 µM) was 1.04 ± 0.017. The relative viability (SW1353; 0.00457 µM) was 0.998 ± 0.015, the relative viability (SW1353; 0.01372 µM) was 0.964 ± 0.021 and the relative viability (SW1353; 0.04115 µM) was 0.983 ± 0.025. It also gave a relative viability (SW1353; 0.1235 µM) of 0.979 ± 0.037, a relative viability (SW1353; 0.3704 µM) of 0.868 ± 0.046 and a relative viability (SW1353; 1.111 µM) of 0.877 ± 0.025. It also gave a relative viability (SW1353; 3.333 µM) of 0.8196 ± 0.0025, a relative viability (SW1353; 10 µM) of 0.769 ± 0.025 and a relative viability (HT1080; 0.00017 µM) of 1.06 ± 0.033. It also gave a relative viability (HT1080; 0.00051 µM) of 1.04 ± 0.017, a relative viability (HT1080; 0.00152 µM) of 1.02 ± 0.016 and a relative viability (HT1080; 0.00457 µM) of 1.04 ± 0.015. For the same compound, the relative viability (HT1080; 0.01372 µM) was 1.03 ± 0.016, the relative viability (HT1080; 0.04115 µM) was 1.03 ± 0.051 and the relative viability (HT1080; 0.1235 µM) was 1.01 ± 0.041. The relative viability (HT1080; 0.3704 µM) was 1.02 ± 0.019, the relative viability (HT1080; 1.111 µM) was 1.026 ± 0.0062 and the relative viability (HT1080; 3.333 µM) was 1 ± 0.018. It also gave a relative viability (HT1080; 10 µM) of 1.02 ± 0.0046, a relative viability (KHOS-NP; 0.00017 µM) of 1.1 ± 0.033 and a relative viability (KHOS-NP; 0.00051 µM) of 1.11 ± 0.019. It also gave a relative viability (KHOS-NP; 0.00152 µM) of 1.105 ± 0.006, a relative viability (KHOS-NP; 0.00457 µM) of 1.1 ± 0.019 and a relative viability (KHOS-NP; 0.01372 µM) of 1.109 ± 0.011. The relative viability (KHOS-NP; 0.04115 µM) was 1.07 ± 0.019, the relative viability (KHOS-NP; 0.1235 µM) was 1.09 ± 0.018 and the relative viability (KHOS-NP; 0.3704 µM) was 1.04 ± 0.028. For the same compound, the relative viability (KHOS-NP; 1.111 µM) was 1.07 ± 0.031, the relative viability (KHOS-NP; 3.333 µM) was 0.998 ± 0.017 and the relative viability (KHOS-NP; 10 µM) was 1.02 ± 0.036. For the same compound, the relative viability (A204; 0.00017 µM) was 1.051 ± 0.0099, the relative viability (A204; 0.00051 µM) was 1.1 ± 0.013 and the relative viability (A204; 0.00152 µM) was 1.09 ± 0.043. The relative viability (A204; 0.00457 µM) was 1.08 ± 0.025, the relative viability (A204; 0.01372 µM) was 1.05 ± 0.072 and the relative viability (A204; 0.04115 µM) was 1.08 ± 0.046. For the same compound, the relative viability (A204; 0.1235 µM) was 1.04 ± 0.044, the relative viability (A204; 0.3704 µM) was 1.04 ± 0.017 and the relative viability (A204; 1.111 µM) was 1.03 ± 0.055. It also gave a relative viability (A204; 3.333 µM) of 0.954 ± 0.046, a relative viability (A204; 10 µM) of 0.883 ± 0.032 and a relative viability (SW872; 0.00017 µM) of 1.07 ± 0.019. The relative viability (SW872; 0.00051 µM) was 1.1 ± 0.046, the relative viability (SW872; 0.00152 µM) was 1.06 ± 0.03 and the relative viability (SW872; 0.00457 µM) was 1.058 ± 0.0043. It also gave a relative viability (SW872; 0.01372 µM) of 1.032 ± 0.0065, a relative viability (SW872; 0.04115 µM) of 1.05 ± 0.01 and a relative viability (SW872; 0.1235 µM) of 1.04 ± 0.025. The relative viability (SW872; 0.3704 µM) was 1.02 ± 0.04, the relative viability (SW872; 1.111 µM) was 1.04 ± 0.02 and the relative viability (SW872; 3.333 µM) was 0.9635 ± 0.0039. The relative viability (SW872; 10 µM) was 0.828 ± 0.048, the relative viability (SYO-1; 0.00017 µM) was 1.03 ± 0.029 and the relative viability (SYO-1; 0.00051 µM) was 0.995 ± 0.045. The relative viability (SYO-1; 0.00152 µM) was 0.987 ± 0.058, the relative viability (SYO-1; 0.00457 µM) was 0.977 ± 0.055 and the relative viability (SYO-1; 0.01372 µM) was 0.951 ± 0.062. The relative viability (SYO-1; 0.04115 µM) was 0.947 ± 0.089, the relative viability (SYO-1; 0.1235 µM) was 0.891 ± 0.1 and the relative viability (SYO-1; 0.3704 µM) was 0.896 ± 0.067. It also gave a relative viability (SYO-1; 1.111 µM) of 0.851 ± 0.031, a relative viability (SYO-1; 3.333 µM) of 0.783 ± 0.095 and a relative viability (SYO-1; 10 µM) of 0.614 ± 0.074. For the same compound, the relative viability (G401; 0.00017 µM) was 1.03 ± 0.0092, the relative viability (G401; 0.00051 µM) was 1.06 ± 0.029 and the relative viability (G401; 0.00152 µM) was 1.04 ± 0.049. It also gave a relative viability (G401; 0.00457 µM) of 1.01 ± 0.043, a relative viability (G401; 0.01372 µM) of 1.02 ± 0.056 and a relative viability (G401; 0.04115 µM) of 1.02 ± 0.02. It also gave a relative viability (G401; 0.1235 µM) of 1.04 ± 0.037, a relative viability (G401; 0.3704 µM) of 1.04 ± 0.062 and a relative viability (G401; 1.111 µM) of 1 ± 0.052. It also gave a relative viability (G401; 3.333 µM) of 0.985 ± 0.033, a relative viability (G401; 10 µM) of 0.939 ± 0.036 and a relative viability (VA-ES-BJ; 0.00017 µM) of 1.03 ± 0.021. For the same compound, the relative viability (VA-ES-BJ; 0.00051 µM) was 1.05 ± 0.061, the relative viability (VA-ES-BJ; 0.00152 µM) was 1.04 ± 0.016 and the relative viability (VA-ES-BJ; 0.00457 µM) was 1.02 ± 0.032. For the same compound, the relative viability (VA-ES-BJ; 0.01372 µM) was 1.02 ± 0.011, the relative viability (VA-ES-BJ; 0.04115 µM) was 0.992 ± 0.036 and the relative viability (VA-ES-BJ; 0.1235 µM) was 0.986 ± 0.038. For the same compound, the relative viability (VA-ES-BJ; 0.3704 µM) was 0.949 ± 0.033, the relative viability (VA-ES-BJ; 1.111 µM) was 0.975 ± 0.035 and the relative viability (VA-ES-BJ; 3.333 µM) was 0.972 ± 0.013. It also gave a relative viability (VA-ES-BJ; 10 µM) of 0.952 ± 0.046, a relative viability (SW684; 0.00017 µM) of 1.14 ± 0.061 and a relative viability (SW684; 0.00051 µM) of 1.16 ± 0.043. It also gave a relative viability (SW684; 0.00152 µM) of 1.16 ± 0.025, a relative viability (SW684; 0.00457 µM) of 1.13 ± 0.035 and a relative viability (SW684; 0.01372 µM) of 1.15 ± 0.016. The relative viability (SW684; 0.04115 µM) was 1.12 ± 0.045, the relative viability (SW684; 0.1235 µM) was 1.11 ± 0.031 and the relative viability (SW684; 0.3704 µM) was 1.14 ± 0.022. For the same compound, the relative viability (SW684; 1.111 µM) was 1.16 ± 0.017, the relative viability (SW684; 3.333 µM) was 1.1 ± 0.05 and the relative viability (SW684; 10 µM) was 1.05 ± 0.053. It also gave a relative viability (MES-SA; 0.00017 µM) of 0.938 ± 0.011, a relative viability (MES-SA; 0.00051 µM) of 0.921 ± 0.025 and a relative viability (MES-SA; 0.00152 µM) of 0.953 ± 0.055. For the same compound, the relative viability (MES-SA; 0.00457 µM) was 0.917 ± 0.064, the relative viability (MES-SA; 0.01372 µM) was 0.94 ± 0.029 and the relative viability (MES-SA; 0.04115 µM) was 0.929 ± 0.027. It also gave a relative viability (MES-SA; 0.1235 µM) of 0.921 ± 0.031, a relative viability (MES-SA; 0.3704 µM) of 0.891 ± 0.054 and a relative viability (MES-SA; 1.111 µM) of 0.902 ± 0.025. It also gave a relative viability (MES-SA; 3.333 µM) of 0.8425 ± 0.0084, a relative viability (MES-SA; 10 µM) of 0.777 ± 0.033 and a relative viability (SK-LMS-1; 0.00017 µM) of 1.14 ± 0.016. The relative viability (SK-LMS-1; 0.00051 µM) was 1.12 ± 0.012, the relative viability (SK-LMS-1; 0.00152 µM) was 1.08 ± 0.032 and the relative viability (SK-LMS-1; 0.00457 µM) was 1.09 ± 0.031. For the same compound, the relative viability (SK-LMS-1; 0.01372 µM) was 1.09 ± 0.012, the relative viability (SK-LMS-1; 0.04115 µM) was 1.09 ± 0.011 and the relative viability (SK-LMS-1; 0.1235 µM) was 1.09 ± 0.025. It also gave a relative viability (SK-LMS-1; 0.3704 µM) of 1.088 ± 0.0068, a relative viability (SK-LMS-1; 1.111 µM) of 1.07 ± 0.055 and a relative viability (SK-LMS-1; 3.333 µM) of 1.02 ± 0.045. The relative viability (SK-LMS-1; 10 µM) was 1.05 ± 0.035, the relative viability (HS729; 0.00017 µM) was 1.05 ± 0.057 and the relative viability (HS729; 0.00051 µM) was 0.958 ± 0.03. It also gave a relative viability (HS729; 0.00152 µM) of 0.934 ± 0.024, a relative viability (HS729; 0.00457 µM) of 0.971 ± 0.075 and a relative viability (HS729; 0.01372 µM) of 0.966 ± 0.11. For the same compound, the relative viability (HS729; 0.04115 µM) was 0.875 ± 0.053, the relative viability (HS729; 0.1235 µM) was 0.94 ± 0.087 and the relative viability (HS729; 0.3704 µM) was 0.878 ± 0.056. It also gave a relative viability (HS729; 1.111 µM) of 0.856 ± 0.034, a relative viability (HS729; 3.333 µM) of 0.812 ± 0.028 and a relative viability (HS729; 10 µM) of 0.781 ± 0.044.
